Data from the supplement of paper PMC10307832.

Assays:
Experiment in all cases: relative viability (nuclei count vs DMSO), 5 days (fraction); higher = more cells survive
[1] = compound: OCc1c[nH]c2ccccc12 [Indole-3-carbinol] + C[C@]1(O)C[C@@H](c2nc(-c3ccc4ccc(-c5ccccc5)nc4c3)c3c(N)nccn32)C1 [Linsitinib] (partner 1 µM)
Method in brief: (§1)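 Five library-drug doses in √10 steps were combined with a fixed anchor-drug dose, or a single drug was given alone, by pin tool to lung cancer cell lines in 1536-well plates the day after seeding. Nuclei were stained and counted after 5 days. Relative viability is the nuclei count in treated wells over that in vehicle wells, taken as the median of duplicate plates.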

[2] = compound: OCc1c[nH]c2ccccc12 [Indole-3-carbinol] + COc1cc2c(Oc3ccc(NC(=O)C4(C(=O)Nc5ccc(F)cc5)CC4)cc3F)ccnc2cc1OCCCN1CCOCC1 [Foretinib] (partner 0.25 µM)
Method in brief: as §1

[3] = compound: OCc1c[nH]c2ccccc12 [Indole-3-carbinol] + C[C@@H](Oc1cc(-c2cnn(C3CCNCC3)c2)cnc1N)c1c(Cl)ccc(F)c1Cl [Crizotinib] (partner 1 µM)
Method in brief: as §1

[4] = compound: OCc1c[nH]c2ccccc12 [Indole-3-carbinol] + N=C(N)NC(=N)NCCc1ccccc1 [Phenformin] (partner 250 µM)
Method in brief: as §1

Indole-3-carbinol = compound: OCc1c[nH]c2ccccc12 [Indole-3-carbinol]
Method in brief: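 In 1536-well plates, lung cancer cell lines rested overnight at 37 °C before five library-drug doses (not always all listed), √10 apart, were pinned onto vehicle-anchored plates. Nuclei were counted with MetaXpress from 4× Hoechst images taken after 5 days without medium change. Viability compares treated-well with vehicle-well nuclei as a median over plates, and plates needed control CV below 25% plus at least one doubling to pass.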

Work on 201T yielded a relative viability ([1]; first compound 0.253 µM) of 1.03, a relative viability ([1]; first compound 0.8 µM) of 0.975 and a relative viability ([1]; first compound 2.53 µM) of 1.1. For the same cell line, the relative viability ([1]; first compound 8 µM) was 1.05, the relative viability ([2]; first compound 0.253 µM) was 1.1 and the relative viability ([2]; first compound 0.8 µM) was 1.07. The relative viability ([2]; first compound 2.53 µM) was 1.04, the relative viability ([2]; first compound 8 µM) was 1.01 and the relative viability ([3]; first compound 0.253 µM) was 1.03. It also gave a relative viability ([3]; first compound 0.8 µM) of 1.02, a relative viability ([3]; first compound 2.53 µM) of 1.07 and a relative viability ([3]; first compound 8 µM) of 1.01. The relative viability ([4]; first compound 0.253 µM) was 0.42, the relative viability ([4]; first compound 0.8 µM) was 0.478 and the relative viability ([4]; first compound 2.53 µM) was 0.505. The relative viability ([4]; first compound 8 µM) was 0.446, the relative viability (Indole-3-carbinol; 0.253 µM) was 1.05 and the relative viability (Indole-3-carbinol; 0.8 µM) was 0.976. For the same cell line, the relative viability (Indole-3-carbinol; 2.53 µM) was 0.953 and the relative viability (Indole-3-carbinol; 8 µM) was 0.986.

Work on NCI-H3122 yielded a relative viability ([1]; first compound 0.253 µM) of 1.02, a relative viability ([1]; first compound 0.8 µM) of 1.03 and a relative viability ([1]; first compound 2.53 µM) of 1.07. It also gave a relative viability ([1]; first compound 8 µM) of 1.04, a relative viability ([2]; first compound 0.253 µM) of 0.972 and a relative viability ([2]; first compound 0.8 µM) of 0.962. The relative viability ([2]; first compound 2.53 µM) was 0.999, the relative viability ([2]; first compound 8 µM) was 0.961 and the relative viability ([3]; first compound 0.253 µM) was 0.289. The relative viability ([3]; first compound 0.8 µM) was 0.293, the relative viability ([3]; first compound 2.53 µM) was 0.281 and the relative viability ([3]; first compound 8 µM) was 0.292. The relative viability ([4]; first compound 0.253 µM) was 0.391, the relative viability ([4]; first compound 0.8 µM) was 0.364 and the relative viability ([4]; first compound 2.53 µM) was 0.413. It also gave a relative viability ([4]; first compound 8 µM) of 0.381, a relative viability (Indole-3-carbinol; 0.253 µM) of 1.07 and a relative viability (Indole-3-carbinol; 0.8 µM) of 0.986. The relative viability (Indole-3-carbinol; 2.53 µM) was 1.02 and the relative viability (Indole-3-carbinol; 8 µM) was 0.983.

Work on A549 yielded a relative viability ([1]; first compound 0.253 µM) of 0.656, a relative viability ([1]; first compound 0.8 µM) of 0.578 and a relative viability ([1]; first compound 2.53 µM) of 0.697. The relative viability ([1]; first compound 8 µM) was 0.545, the relative viability ([2]; first compound 0.253 µM) was 0.968 and the relative viability ([2]; first compound 0.8 µM) was 1.04. The relative viability ([2]; first compound 2.53 µM) was 0.911, the relative viability ([2]; first compound 8 µM) was 0.965 and the relative viability ([3]; first compound 0.253 µM) was 0.712. The relative viability ([3]; first compound 0.8 µM) was 0.914, the relative viability ([3]; first compound 2.53 µM) was 0.819 and the relative viability ([3]; first compound 8 µM) was 0.765. The relative viability ([4]; first compound 0.253 µM) was 0.18, the relative viability ([4]; first compound 0.8 µM) was 0.226 and the relative viability ([4]; first compound 2.53 µM) was 0.254. For the same cell line, the relative viability ([4]; first compound 8 µM) was 0.156, the relative viability (Indole-3-carbinol; 0.253 µM) was 0.951 and the relative viability (Indole-3-carbinol; 0.8 µM) was 1.03. The relative viability (Indole-3-carbinol; 2.53 µM) was 1.02 and the relative viability (Indole-3-carbinol; 8 µM) was 0.91.

With NCI-H727 the relative viability ([1]; first compound 0.253 µM) was 0.178, the relative viability ([1]; first compound 0.8 µM) was 0.31 and the relative viability ([1]; first compound 2.53 µM) was 0.268. The relative viability ([1]; first compound 8 µM) was 0.283, the relative viability ([2]; first compound 0.253 µM) was 0.744 and the relative viability ([2]; first compound 0.8 µM) was 0.891. For the same cell line, the relative viability ([2]; first compound 2.53 µM) was 1.05, the relative viability ([2]; first compound 8 µM) was 0.886 and the relative viability ([3]; first compound 0.253 µM) was 0.795. For the same cell line, the relative viability ([3]; first compound 0.8 µM) was 1.05, the relative viability ([3]; first compound 2.53 µM) was 0.906 and the relative viability ([3]; first compound 8 µM) was 0.832. For the same cell line, the relative viability ([4]; first compound 0.253 µM) was 0.532, the relative viability ([4]; first compound 0.8 µM) was 0.502 and the relative viability ([4]; first compound 2.53 µM) was 0.458. For the same cell line, the relative viability ([4]; first compound 8 µM) was 0.673, the relative viability (Indole-3-carbinol; 0.253 µM) was 0.963 and the relative viability (Indole-3-carbinol; 0.8 µM) was 0.943. The relative viability (Indole-3-carbinol; 2.53 µM) was 0.969 and the relative viability (Indole-3-carbinol; 8 µM) was 1.05.

For NCI-H441, the relative viability ([1]; first compound 0.253 µM) was 0.582, the relative viability ([1]; first compound 0.8 µM) was 0.688 and the relative viability ([1]; first compound 2.53 µM) was 0.576. For the same cell line, the relative viability ([1]; first compound 8 µM) was 0.441, the relative viability ([2]; first compound 0.253 µM) was 0.784 and the relative viability ([2]; first compound 0.8 µM) was 1.1. It also gave a relative viability ([2]; first compound 2.53 µM) of 0.952, a relative viability ([2]; first compound 8 µM) of 1.05 and a relative viability ([3]; first compound 0.253 µM) of 0.724. It also gave a relative viability ([3]; first compound 0.8 µM) of 0.609, a relative viability ([3]; first compound 2.53 µM) of 0.824 and a relative viability ([3]; first compound 8 µM) of 0.76. The relative viability ([4]; first compound 0.253 µM) was 0.883, the relative viability ([4]; first compound 0.8 µM) was 1.01 and the relative viability ([4]; first compound 2.53 µM) was 0.955. For the same cell line, the relative viability ([4]; first compound 8 µM) was 0.797, the relative viability (Indole-3-carbinol; 0.253 µM) was 1.1 and the relative viability (Indole-3-carbinol; 0.8 µM) was 1.28. The relative viability (Indole-3-carbinol; 2.53 µM) was 1.15 and the relative viability (Indole-3-carbinol; 8 µM) was 1.11.

HOP-62 showed a relative viability ([1]; first compound 0.253 µM) of 1.03, a relative viability ([1]; first compound 0.8 µM) of 1.06 and a relative viability ([1]; first compound 2.53 µM) of 1.14. For the same cell line, the relative viability ([1]; first compound 8 µM) was 0.937, the relative viability ([2]; first compound 0.253 µM) was 1.12 and the relative viability ([2]; first compound 0.8 µM) was 1.23. For the same cell line, the relative viability ([2]; first compound 2.53 µM) was 1.16, the relative viability ([2]; first compound 8 µM) was 1.05 and the relative viability ([3]; first compound 0.253 µM) was 0.621. The relative viability ([3]; first compound 0.8 µM) was 0.912, the relative viability ([3]; first compound 2.53 µM) was 0.889 and the relative viability ([3]; first compound 8 µM) was 0.924. For the same cell line, the relative viability ([4]; first compound 0.253 µM) was 0.724, the relative viability ([4]; first compound 0.8 µM) was 0.654 and the relative viability ([4]; first compound 2.53 µM) was 0.671. It also gave a relative viability ([4]; first compound 8 µM) of 0.628, a relative viability (Indole-3-carbinol; 0.253 µM) of 1.02 and a relative viability (Indole-3-carbinol; 0.8 µM) of 0.933. The relative viability (Indole-3-carbinol; 2.53 µM) was 1.03 and the relative viability (Indole-3-carbinol; 8 µM) was 0.939.

With RERF-LC-KJ the relative viability ([1]; first compound 0.253 µM) was 0.961, the relative viability ([1]; first compound 0.8 µM) was 0.943 and the relative viability ([1]; first compound 2.53 µM) was 0.868. For the same cell line, the relative viability ([1]; first compound 8 µM) was 0.825, the relative viability ([2]; first compound 0.253 µM) was 0.873 and the relative viability ([2]; first compound 0.8 µM) was 0.932. It also gave a relative viability ([2]; first compound 2.53 µM) of 0.815, a relative viability ([2]; first compound 8 µM) of 0.819 and a relative viability ([3]; first compound 0.253 µM) of 0.862. It also gave a relative viability ([3]; first compound 0.8 µM) of 0.917, a relative viability ([3]; first compound 2.53 µM) of 0.84 and a relative viability ([3]; first compound 8 µM) of 0.793. For the same cell line, the relative viability ([4]; first compound 0.253 µM) was 0.392, the relative viability ([4]; first compound 0.8 µM) was 0.415 and the relative viability ([4]; first compound 2.53 µM) was 0.428. For the same cell line, the relative viability ([4]; first compound 8 µM) was 0.401, the relative viability (Indole-3-carbinol; 0.253 µM) was 1.01 and the relative viability (Indole-3-carbinol; 0.8 µM) was 0.999. It also gave a relative viability (Indole-3-carbinol; 2.53 µM) of 0.947 and a relative viability (Indole-3-carbinol; 8 µM) of 0.92.

Work on HCC-44 yielded a relative viability ([1]; first compound 0.253 µM) of 0.74, a relative viability ([1]; first compound 0.8 µM) of 0.705 and a relative viability ([1]; first compound 2.53 µM) of 0.614. The relative viability ([1]; first compound 8 µM) was 0.625, the relative viability ([3]; first compound 0.253 µM) was 0.891 and the relative viability ([3]; first compound 0.8 µM) was 0.946. It also gave a relative viability ([3]; first compound 2.53 µM) of 0.913, a relative viability ([3]; first compound 8 µM) of 0.782 and a relative viability ([4]; first compound 0.253 µM) of 0.168. It also gave a relative viability ([4]; first compound 0.8 µM) of 0.198, a relative viability ([4]; first compound 2.53 µM) of 0.187 and a relative viability ([4]; first compound 8 µM) of 0.295. For the same cell line, the relative viability (Indole-3-carbinol; 0.253 µM) was 0.983, the relative viability (Indole-3-carbinol; 0.8 µM) was 0.972 and the relative viability (Indole-3-carbinol; 2.53 µM) was 0.954. The relative viability (Indole-3-carbinol; 8 µM) was 0.96.
